Experimental data taken from ChEMBL document CHEMBL1136786, “2002 Medicinal Chemistry Division Award address: monoamine transporters and opioid receptors. Targets for addiction therapy” (J Med Chem, 2003).
Values joined by “and” are separate entries in the source; they are usually repeats but may differ in a detail not shown here. Equal entries are not always repeated. Active and inactive are the calls of the source. The calls are words filed in the database; no cut-off is given here.

What was measured:
[1] = biological target: Sodium-dependent serotonin transporter (Rattus norvegicus, UniProt P31652); experiment: Inhibition of [3H]paroxetine binding at serotonin transporter was determined
Sequence of Sodium-dependent serotonin transporter (P31652 whole entry): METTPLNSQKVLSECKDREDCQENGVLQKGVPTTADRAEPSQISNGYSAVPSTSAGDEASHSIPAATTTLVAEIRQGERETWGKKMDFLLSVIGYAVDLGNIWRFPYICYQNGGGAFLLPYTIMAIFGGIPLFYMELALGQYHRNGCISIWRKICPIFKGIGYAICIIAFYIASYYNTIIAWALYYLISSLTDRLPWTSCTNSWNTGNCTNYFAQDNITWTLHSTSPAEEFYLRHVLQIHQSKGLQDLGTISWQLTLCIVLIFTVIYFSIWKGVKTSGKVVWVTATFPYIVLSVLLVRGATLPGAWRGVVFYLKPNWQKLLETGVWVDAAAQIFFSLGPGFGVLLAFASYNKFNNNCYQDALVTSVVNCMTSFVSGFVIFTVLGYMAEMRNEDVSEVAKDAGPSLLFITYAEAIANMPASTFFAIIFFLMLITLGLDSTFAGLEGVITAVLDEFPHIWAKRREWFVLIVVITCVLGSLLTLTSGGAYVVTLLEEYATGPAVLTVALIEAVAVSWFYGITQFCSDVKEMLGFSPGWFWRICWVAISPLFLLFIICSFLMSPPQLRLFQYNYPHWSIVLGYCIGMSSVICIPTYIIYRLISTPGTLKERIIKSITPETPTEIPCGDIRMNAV

[2] = biological target: T1, Norepinephrine transporter (Rattus norvegicus, UniProt Q9WTR4); experiment: Affinity for norepinephrine transporter determined by [3H]nisoxetine displacement.
T1 sequence (Q9WTR4 whole entry): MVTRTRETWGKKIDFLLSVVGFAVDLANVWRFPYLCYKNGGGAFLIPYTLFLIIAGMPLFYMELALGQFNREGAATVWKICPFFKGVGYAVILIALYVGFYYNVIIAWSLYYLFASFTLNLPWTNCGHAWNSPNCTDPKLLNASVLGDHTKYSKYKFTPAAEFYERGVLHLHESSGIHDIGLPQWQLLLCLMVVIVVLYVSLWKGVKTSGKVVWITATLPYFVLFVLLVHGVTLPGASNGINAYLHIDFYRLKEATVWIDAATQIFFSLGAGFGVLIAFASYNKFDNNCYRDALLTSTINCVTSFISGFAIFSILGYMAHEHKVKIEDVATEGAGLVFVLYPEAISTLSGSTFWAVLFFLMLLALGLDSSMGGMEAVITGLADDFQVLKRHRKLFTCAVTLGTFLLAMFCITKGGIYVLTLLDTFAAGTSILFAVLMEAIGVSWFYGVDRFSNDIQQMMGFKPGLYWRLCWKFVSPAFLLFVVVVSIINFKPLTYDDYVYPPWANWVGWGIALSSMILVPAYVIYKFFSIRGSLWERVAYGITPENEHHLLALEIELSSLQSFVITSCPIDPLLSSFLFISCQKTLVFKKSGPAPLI

[3] = biological target: Sodium-dependent dopamine transporter (Rattus norvegicus, UniProt P23977); experiment: Inhibition of [3H]WIN-35428 binding at dopamine transporter was determined
Sequence of Sodium-dependent dopamine transporter (P23977 whole entry): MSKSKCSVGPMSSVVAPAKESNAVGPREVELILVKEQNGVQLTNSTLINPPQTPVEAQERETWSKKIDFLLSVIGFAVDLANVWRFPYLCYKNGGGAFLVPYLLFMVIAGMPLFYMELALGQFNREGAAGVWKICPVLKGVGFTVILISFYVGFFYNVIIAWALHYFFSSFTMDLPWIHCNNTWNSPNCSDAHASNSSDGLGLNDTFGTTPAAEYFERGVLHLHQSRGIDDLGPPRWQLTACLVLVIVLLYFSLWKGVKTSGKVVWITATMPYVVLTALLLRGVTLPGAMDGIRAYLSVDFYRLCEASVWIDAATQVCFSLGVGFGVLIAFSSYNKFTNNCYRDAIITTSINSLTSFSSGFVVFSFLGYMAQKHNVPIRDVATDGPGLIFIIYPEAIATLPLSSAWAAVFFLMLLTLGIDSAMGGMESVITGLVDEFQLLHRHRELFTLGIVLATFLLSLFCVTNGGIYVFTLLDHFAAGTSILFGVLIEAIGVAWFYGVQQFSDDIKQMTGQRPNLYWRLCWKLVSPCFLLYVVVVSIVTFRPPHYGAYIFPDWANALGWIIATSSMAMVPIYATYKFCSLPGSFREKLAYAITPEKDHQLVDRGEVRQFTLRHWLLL

[4] = biological target: T1, Norepinephrine transporter; experiment: Inhibition of [3H]nisoxetine binding at norepinephrine transporter
[5] = biological target: Mu-type opioid receptor (Cavia porcellus) (UniProt P97266); experiment: Inhibition of [35S]GTP-gamma-S, binding in guines pig caudate stimulated by DAMGO for Opioid receptor mu 1; assay type: functional
Sequence of Mu-type opioid receptor (Cavia porcellus) (P97266 whole entry): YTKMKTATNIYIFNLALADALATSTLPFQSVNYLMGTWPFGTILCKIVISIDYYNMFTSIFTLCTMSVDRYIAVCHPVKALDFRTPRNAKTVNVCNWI

[6] = biological target: Kappa-type opioid receptor (Cavia porcellus) (UniProt P41144); experiment: Inhibition of [35S]GTP-gamma-S, binding in guines pig caudate stimulated by U69, 593 of Opioid receptor kappa 1; assay type: functional
Sequence of Kappa-type opioid receptor (Cavia porcellus) (P41144 whole entry): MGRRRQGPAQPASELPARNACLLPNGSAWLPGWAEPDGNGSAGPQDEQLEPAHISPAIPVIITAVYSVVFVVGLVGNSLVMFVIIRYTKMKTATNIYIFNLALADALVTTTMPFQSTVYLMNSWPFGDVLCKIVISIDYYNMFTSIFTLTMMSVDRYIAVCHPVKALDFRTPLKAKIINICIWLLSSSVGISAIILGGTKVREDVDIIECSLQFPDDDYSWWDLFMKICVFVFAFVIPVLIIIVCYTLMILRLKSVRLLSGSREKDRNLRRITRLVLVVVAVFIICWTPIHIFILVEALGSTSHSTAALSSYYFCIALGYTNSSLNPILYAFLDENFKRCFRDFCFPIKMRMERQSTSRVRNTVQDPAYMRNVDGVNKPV

Mu-type opioid receptor = Mu-type opioid receptor (Cavia porcellus, UniProt P97266); experiment: Inhibition of binding of [3H]DAMGO to Opioid receptor mu 1 in guinea pig membranes; assay type: cell membranes
Sequence of Mu-type opioid receptor (P97266 whole entry): as the sequence (P97266 whole entry) above

[7] = biological target: Delta-type opioid receptor (Homo sapiens) (UniProt P41143); conditions: Cavia porcellus
Sequence of Delta-type opioid receptor (Homo sapiens) (P41143 whole entry): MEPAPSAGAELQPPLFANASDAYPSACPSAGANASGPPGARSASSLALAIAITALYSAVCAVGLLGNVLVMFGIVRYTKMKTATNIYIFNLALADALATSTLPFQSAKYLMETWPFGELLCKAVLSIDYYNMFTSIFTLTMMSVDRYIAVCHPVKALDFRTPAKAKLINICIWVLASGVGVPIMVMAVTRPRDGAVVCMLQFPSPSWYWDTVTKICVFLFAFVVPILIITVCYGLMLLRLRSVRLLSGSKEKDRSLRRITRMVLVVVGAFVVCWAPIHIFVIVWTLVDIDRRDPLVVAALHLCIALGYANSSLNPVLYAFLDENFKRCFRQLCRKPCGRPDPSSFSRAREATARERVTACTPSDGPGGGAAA
Description: Inhibition of [35S]GTP-gamma-S, binding in guines pig caudate stimulated by SNC-80 to Opioid receptor delta 1

Rattus norvegicus [8] = species on record: Rattus norvegicus; assay type: functional, Striatum
Rattus norvegicus [9] = experiment: Degradation rate constant for dopamine transporter in nucleus accumbens after intraventricular injection of 100 nmol of compound; assay type: functional
Rattus norvegicus [10] = experiment: Half life of recovery for dopamine transporter in striatum after intraventricular injection of 100 nmol of compound; assay type: functional, organism-based
Rattus norvegicus [11] = species on record: Rattus norvegicus; assay type: functional, Cardiac ventricle
Rattus norvegicus [12] = experiment: Degradation rate constant for dopamine transporter in striatum after intraventricular injection of 100 nmol of compound; assay type: functional
Rattus norvegicus [13] = experiment: Half life of recovery for dopamine transporter in nucleus accumbens after intraventricular injection of 100 nmol of compound; assay type: functional, organism-based
Rattus norvegicus [14] = experiment: Effective dose of compound required to produce maximal locomotor activity in cocaine-trained rat by intraperitoneal administration; assay type: functional; conditions: ip
Rattus norvegicus [15] = experiment: Time taken to produce maximal locomotor activity at 30 min period in rat by intraperitoneal administration; assay type: functional
Rattus norvegicus [16] = experiment: Maximal locomotor activity of compound compared as a percent of cocaine's effect in rat by intraperitoneal administration; assay type: functional
Rattus norvegicus [17] = experiment: Time taken to produce maximal locomotor activity at 30 min period in rat by oral administration; assay type: functional
Rattus norvegicus [18] = experiment: Maximal locomotor activity of compound compared as a percent of cocaine's effect in rat by oral administration; assay type: functional
Rattus norvegicus [19] = experiment: Time during which activity returned to baseline level in rat by intraperitoneal administration; assay type: functional
Rattus norvegicus [20] = experiment: Effective dose of compound required to produce maximal locomotor activity in rat by oral administration; assay type: functional
Rattus norvegicus [21] = experiment: Effective dose of compound required to produce maximal locomotor activity in rat by intraperitoneal administration; assay type: functional; conditions: ip
Rattus norvegicus [22] = experiment: Effective dose of compound required to produce maximal locomotor activity in cocaine-trained rat by oral administration; assay type: functional
Rattus norvegicus [23] = experiment: Time during which activity returned to baseline level in rat by oral administration; assay type: functional
Rattus norvegicus [24] = species on record: Rattus norvegicus; experiment: Degradation rate constant for dopamine transporter in nucleus accumbens was determined; assay type: functional
Rattus norvegicus [25] = species on record: Rattus norvegicus; experiment: Half life of recovery for dopamine transporter in striatum was determined; assay type: functional
Rattus norvegicus [26] = species on record: Rattus norvegicus; experiment: Half life of recovery for dopamine transporter in nucleus accumbens was determined; assay type: functional
Rattus norvegicus [27] = species on record: Rattus norvegicus; experiment: Degradation rate constant for dopamine transporter in striatum was determined; assay type: functional
Mus musculus [28] = species on record: Mus musculus; experiment: Antagonistic activity of nicotine-induced hypothermia in mice was determined; assay type: functional
Mus musculus [29] = species on record: Mus musculus; experiment: Antagonistic activity of nicotine-induced analgesia in mice was determined; assay type: functional
[30] = biological target: D(2) dopamine receptor (Rattus norvegicus) (UniProt P61169)
Sequence of D(2) dopamine receptor (Rattus norvegicus) (P61169 whole entry): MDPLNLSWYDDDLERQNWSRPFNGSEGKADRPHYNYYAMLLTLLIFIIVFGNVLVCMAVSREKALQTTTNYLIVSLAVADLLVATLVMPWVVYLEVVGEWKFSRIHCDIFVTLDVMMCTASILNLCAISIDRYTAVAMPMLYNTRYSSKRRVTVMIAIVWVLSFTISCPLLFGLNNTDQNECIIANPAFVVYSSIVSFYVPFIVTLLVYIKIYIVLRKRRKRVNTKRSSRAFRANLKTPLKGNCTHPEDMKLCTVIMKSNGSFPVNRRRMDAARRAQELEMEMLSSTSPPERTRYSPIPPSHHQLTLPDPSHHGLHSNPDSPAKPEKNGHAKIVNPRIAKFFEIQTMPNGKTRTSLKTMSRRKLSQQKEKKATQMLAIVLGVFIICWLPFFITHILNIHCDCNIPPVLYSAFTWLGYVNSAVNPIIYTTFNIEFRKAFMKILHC

[31] = biological target: D(2) dopamine receptor (Rattus norvegicus) (UniProt P61169); conditions: Nucleus accumbens

Row | SMILES | IC50 [1] [nM] | Ki [1] [nM] | Ki [2] [nM] | IC50 [3] [nM] | IC50 [4] [nM] | further results
1 | C=C(C)c1ccc([C@H]2C[C@H]3CCC(N3)C2C(=O)OC)cc1 (some centres undefined) | 0.6 | 0.055 | 87 | 23 | 144 | –
2 | C[C@H]1CN(CC[C@H](O)C2CCCCC2)CC[C@@]1(C)c1cccc(O)c1 | – | – | – | – | – | Ke [5]: 0.021 nM; Ke [6]: 0.33 nM; Ki (Mu-type opioid receptor): 0.32 nM; Ke [7]: 0.312 nM
3 | COC(=O)C1C2CC[C@H](C[C@@H]1c1ccc(I)cc1)N2C (some centres undefined) | – | 0.38 | 21.6 | – | – | –
4 | C[C@H]1CN(C/C=C/c2ccccc2)CC[C@@]1(C)c1cccc(O)c1 | – | – | – | – | – | Ke [5]: 0.039 nM; Ke [6]: 1.04 nM; Ki (Mu-type opioid receptor): 0.74 nM
5 | CN1C2CC[C@@H]1C[C@H](c1ccc(Cl)cc1)C2C(=O)OCCc1ccc(N=S)cc1 (some centres undefined) | 7.1 | 0.65 | 843 | 5.3 | 1400 | Transporter production rate (r) (Rattus norvegicus [8]): 202 fM/mg/day; Transporter deg rate const (k) (Rattus norvegicus [9]): 0.3 day⁻¹; T1/2 (Rattus norvegicus [10]): 50.4 h; Transporter production rate (r) (Rattus norvegicus [11]): 106 fM/mg/day; Transporter deg rate const (k) (Rattus norvegicus [12]): 0.34 day⁻¹; T1/2 (Rattus norvegicus [13]): 50.4 h
6 | Cc1ccc(-c2cc(C3C4CC[C@H](C[C@@H]3c3ccc(Cl)cc3)N4C)on2)cc1 (some centres undefined) | 5740 | 522 | 1030 | 4.09 | 1710 | ED50 (Rattus norvegicus [14]): 5.6 mg/kg; Peak time (Rattus norvegicus [15]): 70 min; Maximal locomotor activity (% of cocaine) (Rattus norvegicus [16]): 71%; Peak time (Rattus norvegicus [17]): 60 min; Cocaine (Rattus norvegicus [18]): 77%; Time (Rattus norvegicus [19]): >4 h; ED50 (Rattus norvegicus [20]): 14.4 mg/kg; ED50 (Rattus norvegicus [21]): 4.8 mg/kg; ED50 (Rattus norvegicus [22]): 3.54 mg/kg; Time (Rattus norvegicus [23]): >4 h
7 | COC(=O)C1C2CC[C@H](C[C@H]1c1ccc(Cl)c(Cl)c1)N2C (some centres undefined) | 3.13 | 0.28 | 10.8 | – | 18 | –
8 | COC(=O)[C@H]1[C@@H](OC(=O)c2ccccc2)C[C@@H]2CC[C@H]1N2C [COCAINE] | – | – | – | – | – | Change (Rattus norvegicus [24]): -30% and -27%; Change (Rattus norvegicus [25]): 22%; ED50 (Rattus norvegicus [14]): 2.5 mg/kg; Peak time (Rattus norvegicus [15]): 0 min; Maximal locomotor activity (% of cocaine) (Rattus norvegicus [16]): 100%; Change (Rattus norvegicus [26]): 43%; Change (Rattus norvegicus [27]): -17% and -16%; Time (Rattus norvegicus [19]): <2 h; ED50 (Rattus norvegicus [21]): 21 mg/kg
9 | CN1C2CC[C@@H]1C[C@H](c1ccc(Cl)cc1)C2c1cc(-c2ccccc2)no1 (some centres undefined) | – | 220 | 304 | – | – | –
10 | CN1C2CC[C@@H]1C[C@H](c1ccc(Cl)cc1)C2C(=O)N1CCCC1 (some centres undefined) | 12400 | 1130 | 2370 | 1.38 | 3940 | –
11 | CC(NC(C)(C)C)C(=O)c1cccc(Cl)c1 (centres undefined) [BUPROPION] | – | – | – | – | – | AD50 (Mus musculus [28]): 16 mM/kg; AD50 (Mus musculus [29]): 9 mM/kg
12 | COC(=O)C1C2CC[C@H](C[C@@H]1c1cccc(I)c1)N2 (some centres undefined) | 39 | 3.6 | 964 | 26 | 1600 | –
13 | COC(=O)C1C2CC[C@H](C[C@@H]1c1ccc(C)cc1)N2 (some centres undefined) | 500 | 46 | 5.4 | 33.6 | 9 | –
14 | CN1C2CCC1C(C(=O)Oc1ccccc1)C(c1ccc(Cl)cc1)C2 (centres undefined) | – | 214 | 1780 | – | – | ED50 (Rattus norvegicus [14]): 2.28 mg/kg; Peak time (Rattus norvegicus [15]): 30 min; Maximal locomotor activity (% of cocaine) (Rattus norvegicus [16]): 128%; Time (Rattus norvegicus [19]): >4 h; ED50 (Rattus norvegicus [21]): 0.93 mg/kg
15 | Cc1ccc([C@H]2C[C@H]3CCC(C2c2ccccc2)N3C)cc1 (some centres undefined) | 11000 | 1000 | 289 | 1.96 | 480 | –
16 | C[C@H]1CN(C/C=C/c2ccccc2Cl)CC[C@@]1(C)c1cccc(O)c1 | – | – | – | – | – | Ke [5]: 0.026 nM; Ke [6]: 0.567 nM; Ki (Mu-type opioid receptor): 1.12 nM
17 | CCc1ccc([C@H]2C[C@H]3CCC(N3)C2C(=O)OC)cc1I (some centres undefined) | 0.69 | 0.063 | 89 | 329 | 148 | –
18 | CCc1cc(Cl)c(OC)c(C(=O)NC[C@@H]2CCCN2CC)c1O | – | – | – | – | – | NC [30]: inactive; NC [31]: inactive
19 | Cc1ccc([C@H]2C[C@H]3CCC(C2C(=O)OC(C)C)N3C)cc1 (some centres undefined) | 6090 | 554 | 1160 | 6.45 | 1930 | ED50 (Rattus norvegicus [14]): 4.4 mg/kg; Peak time (Rattus norvegicus [15]): 10 min; Maximal locomotor activity (% of cocaine) (Rattus norvegicus [16]): 103%; Peak time (Rattus norvegicus [17]): 100 min; Cocaine (Rattus norvegicus [18]): 116%; Time (Rattus norvegicus [19]): >4 h; ED50 (Rattus norvegicus [20]): 4.7 mg/kg; ED50 (Rattus norvegicus [21]): 3.1 mg/kg; ED50 (Rattus norvegicus [22]): 5.7 mg/kg; Time (Rattus norvegicus [23]): >4 h
